Results from patent US12077503B2, “Substituted cyclic amides and their use as herbicides” (FMC CORPORATION, priority 2015, dated 2024).

Key:
Type in all cases: in vivo
Kochia (Kochia scoparia) [1] = assay: Test A preemergence; details: Bassia scoparia, pre-emergence, 240 h, 0 to 100 scale where 0 is no effect and 100 is complete control, read-out: Kochia plant response rating
How it was run: (§1)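 Preemergence soil spray on seeded pots or post-emergence spray on 1–2 leaf plants, in loam–sand blend. Greenhouse ~10 d. Visual rating 0–100 against untreated plants.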

[2] = tested on: barnyardgrass (Echinochloa crus-galli); assay: Test A preemergence; details: Echinochloa crus-galli, pre-emergence, 240 h, 0 to 100 scale where 0 is no effect and 100 is complete control, read-out: Barnyardgrass plant response rating
How it was run: as §1

[3] = tested on: giant foxtail (Setaria faberii); assay: Test A preemergence; details: Setaria faberi, pre-emergence, 240 h, 0 to 100 scale where 0 is no effect and 100 is complete control, read-out: Foxtail, Giant plant response rating
How it was run: as §1

[4] = tested on: pigweed (Amaranthus retroflexus); assay: Test A preemergence; details: Amaranthus retroflexus, pre-emergence, 240 h, 0 to 100 scale where 0 is no effect and 100 is complete control, read-out: Pigweed plant response rating
[5] = tested on: ragweed (common ragweed, Ambrosia elatior); assay: Test A preemergence; details: Ambrosia artemisiifolia, pre-emergence, 240 h, 0 to 100 scale where 0 is no effect and 100 is complete control, read-out: Ragweed plant response rating
How it was run: as §1

[6] = tested on: ryegrass, Italian (Italian ryegrass, Lolium multiflorum); assay: Test A preemergence; details: Lolium multiflorum, pre-emergence, 240 h, 0 to 100 scale where 0 is no effect and 100 is complete control, read-out: Ryegrass, Italian plant response rating
How it was run: as §1

[7] = tested on: Galium (catchweed bedstraw, Galium aparine); assay: Test A postemergence; details: Galium, post-emergence, 240 h
How it was run: as §1

Kochia (Kochia scoparia) [8] = assay: Test A postemergence; details: Bassia scoparia, post-emergence, 240 h
How it was run: as §1

[9] = tested on: barnyardgrass (Echinochloa crus-galli); assay: Test A postemergence; details: Echinochloa crus-galli, post-emergence, 240 h
How it was run: as §1

[10] = tested on: blackgrass (Alopecurus myosuroides); assay: Test A postemergence; details: Alopecurus myosuroides, post-emergence, 240 h
How it was run: as §1

corn (Zea mays) = assay: Test A postemergence; details: Zea mays, post-emergence, 240 h
How it was run: as §1

[11] = tested on: giant foxtail (Setaria faberii); assay: Test A postemergence; details: Setaria faberi, post-emergence, 240 h
How it was run: as §1

[12] = tested on: pigweed (Amaranthus retroflexus); assay: Test A postemergence; details: Amaranthus retroflexus, post-emergence, 240 h, 125 g ai/ha, postemergence, visual injury vs untreated controls after approx. 10 d; 0 = no effect, 100 = complete control; read-out: Pigweed plant response rating (0 to 100 scale)
How it was run: as §1

[13] = tested on: ragweed (common ragweed, Ambrosia elatior); assay: Test A postemergence; details: Ambrosia artemisiifolia, post-emergence, 240 h, 125 g ai/ha, postemergence, visual injury vs untreated controls after approx. 10 d; 0 = no effect, 100 = complete control; read-out: Ragweed plant response rating (0 to 100 scale)
How it was run: as §1

[14] = tested on: ryegrass, Italian (Italian ryegrass, Lolium multiflorum); assay: Test A postemergence; details: Lolium multiflorum, post-emergence, 240 h, 125 g ai/ha, postemergence, visual injury vs untreated controls after approx. 10 d; 0 = no effect, 100 = complete control; read-out: Ryegrass, Italian plant response rating (0 to 100 scale)
How it was run: as §1

[15] = tested on: wheat (Triticum aestivum); assay: Test A postemergence; details: Triticum aestivum, post-emergence, 240 h, 125 g ai/ha, postemergence, visual injury vs untreated controls after approx. 10 d; 0 = no effect, 100 = complete control; read-out: Wheat plant response rating (0 to 100 scale)
How it was run: as §1

[16] = tested on: barnyardgrass (Echinochloa crus-galli); assay: Test B flooded paddy test; details: Echinochloa crus-galli, 250 g ai/ha, Flood; 0 to 100 scale where 0 is no effect and 100 is complete control; read-out: Barnyardgrass plant response rating
How it was run: (§2)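 Visual ratings (0 none to 100 complete control) are relative to untreated plants, taken 13–15 d after treatment in a greenhouse. Test material went straight into floodwater standing 3 cm above the soil, kept constant, on plants at the 2-leaf stage.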

[17] = tested on: ducksalad (Heteranthera limosa); assay: Test B flooded paddy test; details: Heteranthera limosa, 250 g ai/ha, Flood; 0 to 100 scale where 0 is no effect and 100 is complete control; read-out: Ducksalad plant response rating
How it was run: as §2

rice (Oryra sativa) = assay: Test B flooded paddy test; details: Oryza sativa, 250 g ai/ha, Flood; 0 to 100 scale where 0 is no effect and 100 is complete control; read-out: Rice plant response rating
How it was run: as §2

[18] = tested on: sedge, umbrella (small-flower umbrella sedge, Cyperus difformis); assay: Test B flooded paddy test; details: Cyperus difformis, 250 g ai/ha, Flood; 0 to 100 scale where 0 is no effect and 100 is complete control; read-out: Sedge, Umbrella plant response rating
How it was run: as §2

[19] = 125 g ai/ha, preemergence, visual injury rating, approximately 10 d

In the case of COc1ccc(C(F)(F)F)cc1[C@H]1CN(C)C(=O)[C@@H]1C(=O)Nc1cccc(F)c1F [Compound 1184], the pest or weed control at 31 g/ha (Kochia (Kochia scoparia) [1]; 31 g ai/ha, Preemergence) is reported as 0%, the pest or weed control at 125 g/ha (Kochia (Kochia scoparia) [1]; [19]) is reported as 0% and the pest or weed control at 31 g/ha ([2]; 31 g ai/ha, Preemergence) is reported as 90%. The pest or weed control at 125 g/ha [2, 19] was 100%, the pest or weed control at 31 g/ha ([3]; 31 g ai/ha, Preemergence) was 80% and the pest or weed control at 125 g/ha [3, 19] was 90%. It also gave a pest or weed control at 31 g/ha ([4]; 31 g ai/ha, Preemergence) of 0%, a pest or weed control at 125 g/ha [4, 19] of 0% and a pest or weed control at 31 g/ha ([5]; 31 g ai/ha, Preemergence) of 0%. It also gave a pest or weed control at 125 g/ha [5, 19] of 0%, a pest or weed control at 31 g/ha ([6]; 31 g ai/ha, Preemergence) of 40% and a pest or weed control at 125 g/ha [6, 19] of 50%. It also gave a pest or weed control at 125 g/ha ([7]; 125 g ai/ha, postemergence, visual injury vs untreated controls after approx. 10 d, 0 = no effect, 100 = complete control, read-out: Galium plant response rating (0 to 100 scale)) of 20%, a pest or weed control at 31 g/ha ([7]; Postemergence, 31 g ai/ha, visual injury after approx. 10 d, 0 to 100 scale, 0 no effect, 100 complete control, read-out: Plant response rating, Galium) of 0% and a pest or weed control at 125 g/ha (Kochia (Kochia scoparia) [8]; 125 g ai/ha, postemergence, visual injury vs untreated controls after approx. 10 d, 0 = no effect, 100 = complete control, read-out: Kochia plant response rating (0 to 100 scale)) of 0%. For the same molecule, the pest or weed control at 31 g/ha (Kochia (Kochia scoparia) [8]; Postemergence, 31 g ai/ha, visual injury after approx. 10 d, 0 to 100 scale, 0 no effect, 100 complete control, read-out: Plant response rating, Kochia) was 0%, the pest or weed control at 125 g/ha ([9]; 125 g ai/ha, postemergence, visual injury vs untreated controls after approx. 10 d, 0 = no effect, 100 = complete control, read-out: Barnyardgrass plant response rating (0 to 100 scale)) was 80% and the pest or weed control at 31 g/ha ([9]; Postemergence, 31 g ai/ha, visual injury after approx. 10 d, 0 to 100 scale, 0 no effect, 100 complete control, read-out: Plant response rating, Barnyardgrass) was 70%. For the same molecule, the pest or weed control at 125 g/ha ([10]; 125 g ai/ha, postemergence, visual injury vs untreated controls after approx. 10 d, 0 = no effect, 100 = complete control, read-out: Blackgrass plant response rating (0 to 100 scale)) was 60%, the pest or weed control at 31 g/ha ([10]; Postemergence, 31 g ai/ha, visual injury after approx. 10 d, 0 to 100 scale, 0 no effect, 100 complete control, read-out: Plant response rating, Blackgrass) was 30% and the plant injury at 125 g/ha (corn (Zea mays); 125 g ai/ha, postemergence, visual injury vs untreated controls after approx. 10 d, 0 = no effect, 100 = complete control, read-out: Corn plant response rating (0 to 100 scale)) was 40%. It also gave a Corn plant response rating (crop injury, 0 = no effect, 100 = complete kill) at 31 g/ha (corn (Zea mays); Postemergence, 31 g ai/ha, visual injury after approx. 10 d, 0 to 100 scale, 0 no effect, 100 complete control) of 50%, a pest or weed control at 125 g/ha ([11]; 125 g ai/ha, postemergence, visual injury vs untreated controls after approx. 10 d, 0 = no effect, 100 = complete control, read-out: Foxtail, Giant plant response rating (0 to 100 scale)) of 80% and a pest or weed control at 31 g/ha ([11]; Postemergence, 31 g ai/ha, visual injury after approx. 10 d, 0 to 100 scale, 0 no effect, 100 complete control, read-out: Plant response rating, Foxtail, Giant) of 80%. For the same molecule, the pest or weed control at 125 g/ha [12] was 0%, the pest or weed control at 125 g/ha [13] was 0% and the pest or weed control at 125 g/ha [14] was 30%. For the same molecule, the plant injury at 125 g/ha [15] was 60%, the pest or weed control at 250 g/ha [16] was 90% and the pest or weed control at 250 g/ha [17] was 95%. It also gave a pest or weed control at 250 g/ha (rice (Oryra sativa)) of 15% and a pest or weed control at 250 g/ha [18] of 0%.
